This is an account of results in US9708314B2, “Heterocyclic amide compound” (NISSAN CHEMICAL INDUSTRIES, LTD., priority 2013, dated 2017).

Common to all, as to format: in vivo
Data set [1] concerns Echinochloa oryzacola Vasing. Nature of the data set: Test Example 1: herbicidal activity, application before weed generation in submerged conditions. The following applies: Application herbicide amount 320 g/ha; Seventeenth Table. In short, it runs like this:
(§1)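 Submerged pot test: alluvial soil, 4 cm water, seeds sown mixed, 2.5-leaf rice transplanted; emulsion in water applied to surface day of sowing, dose g/ha; greenhouse 25–30° C.; 3 wk; 0–5 rating.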

For the next data set, the system named is Monochoria vaginalis. Described as above. Particulars: Application herbicide amount 320 g/ha; Seventeenth Table. In outline:
as §1

The next data set relates to Scirpus juncoides. The description is as above. Particulars: Application herbicide amount 320 g/ha; Seventeenth Table. In outline:
as §1

Data set [2] relates to transplanted Oryza sativa. The experiment in a line: Test Example 1: effect on crop, application before weed generation in submerged conditions. Particulars: Application herbicide amount 320 g/ha; Seventeenth Table. In short, it runs like this:
as §1

For data set [3], the system named is Echinochloa oryzacola Vasing. The experiment in a line: Test Example 2: herbicidal activity, application during weed generation in submerged conditions. Particulars: Eighteenth Table; application herbicide amount 320 g/ha. In short, it runs like this:
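Paddy-type pot test: flooded soil, 4 cm depth, greenhouse 25–30 °C. Emulsion formulation diluted in water, applied to water surface at 1–2 leaf stage; rate expressed as g/ha. Read-out at 3 wk, 0–5 score.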

In a further data set the test system is Avena fatua. Nature of the data set: Test Example 4: herbicidal effect by application to foliage (diluvial soil, plastic box). Particulars: for I: herbicidal effect on Avena fatua: application to foliage, application herbicide amount 320 g/ha; for I (Avena fatua) herbicidal effect grade: Application herbicide amount 320 g/ha, foliage application. In short, it runs like this:
(§2)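 Read-out is a 0–5 visual grade of herbicidal ratio (5: ≥90%, almost withered; 0: ≤5%) taken three weeks after treatment. Compound was applied as a diluted emulsion to stem and leaf parts of 14-day greenhouse-grown plants (25° C. to 30° C.) at rates expressed as g/ha.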

Data set [4] relates to Echinochloa crus-galli var. crus-galli. The description is as above. Particulars: for H: herbicidal effect on Echinochloa crus-galli var. crus-galli: application to foliage, application herbicide amount 320 g/ha; for H (Echinochloa crus-galli var. crus-galli) herbicidal effect grade: Application herbicide amount 320 g/ha, foliage application. In short, it runs like this:
as §2

In another data set the test system is Galium spurium. Described as above. Particulars: for Q: herbicidal effect on Galium spurium: application to foliage, application herbicide amount 320 g/ha; for Q (Galium spurium) herbicidal effect grade: Application herbicide amount 320 g/ha, foliage application. In short, it runs like this:
as §2

The subject of a further data set is Lolium multiflorum Lam. The data set is described as above. Particulars: for K: herbicidal effect on Lolium multiflorum Lam.: application to foliage, application herbicide amount 320 g/ha; for K (Lolium multiflorum Lam.) herbicidal effect grade: Application herbicide amount 320 g/ha, foliage application. In short, it runs like this:
as §2

For `CCC(C)c1nnc2c(C(=O)Nc3nnnn3C)ccc(C(F)(F)F)n12` (centres unmarked) [2-016], the “A: Echinochloa oryzicola Vasing. (herbicidal effect grade)” value in data set [1] is given as 5 (Herbicidal ratio of 90% or more (almost completely withered)). Besides, the “C: Monochoria vaginalis (herbicidal effect grade)” value (“C: Monochoria vaginalis” for short) with Monochoria vaginalis is 5 (Herbicidal ratio of 90% or more (almost completely withered)). The “B: Scirpus juncoides (herbicidal effect grade)” value (from here on “B: Scirpus juncoides”) in the data set with Scirpus juncoides is listed as 5 (Herbicidal ratio of 90% or more (almost completely withered)). The “a: transplanted Oryza sativa (effect on crop grade)” value (shortened to “a: transplanted Oryza sativa”) in data set [2] is 4 (Herbicidal ratio of 70% or more and less than 90%). Further, in [3], the “A (Echinochloa oryzicola Vasing.) herbicidal ratio grade” value was 5 (Herbicidal ratio of 90% or more (almost completely withered)). Further, the “I: herbicidal effect on Avena fatua” value with Avena fatua is 4 (Herbicidal ratio of 70% or more and less than 90%). In addition, the “H: herbicidal effect on Echinochloa crus-galli var. crus-galli” value (“H: herbicidal effect” below) in data set [4] is 5 (Herbicidal ratio of 90% or more (almost completely withered)). The “Q: herbicidal effect on Galium spurium” value in the data set on Galium spurium is 3 (Herbicidal ratio of 40% or more and less than 70%). Besides, the “K: herbicidal effect on Lolium multiflorum Lam.” value (“K: herbicidal effect” for short) in the data set on Lolium multiflorum Lam. is 4 (Herbicidal ratio of 70% or more and less than 90%).
With `Cc1nnc(NC(=O)c2ccc(C(F)(F)F)n3c(N4CCCC4)nnc23)o1` [1-136], the “A: Echinochloa oryzicola Vasing. (herbicidal effect grade)” value in data set [1] was 5 (Herbicidal ratio of 90% or more (almost completely withered)). Also, the “C: Monochoria vaginalis” value with Monochoria vaginalis is 3 (Herbicidal ratio of 40% or more and less than 70%). The “B: Scirpus juncoides” value with Scirpus juncoides is 3 (Herbicidal ratio of 40% or more and less than 70%). In addition, the “a: transplanted Oryza sativa” value in data set [2] is 1 (Herbicidal ratio of 5% or more and less than 20%). Besides, the “A (Echinochloa oryzicola Vasing.) herbicidal ratio grade” value in data set [3] was 0 (Herbicidal ratio of 5% or less (almost no effect)). Moreover, in the data set with Avena fatua, the “I (Avena fatua) herbicidal effect grade” value was 0 (Herbicidal ratio of 5% or less (almost no effect)). Besides, the “H (Echinochloa crus-galli var. crus-galli) herbicidal effect grade” value in data set [4] was 4 (Herbicidal ratio of 70% or more and less than 90%). Further, the “Q (Galium spurium) herbicidal effect grade” value in the data set with Galium spurium is given as 0 (Herbicidal ratio of 5% or less (almost no effect)). The “K (Lolium multiflorum Lam.) herbicidal effect grade” value with Lolium multiflorum Lam. is reported as 0 (Herbicidal ratio of 5% or less (almost no effect)).
Turning to `CCOCc1nnc2c(C(=O)Nc3nnnn3C)ccc(C(F)(F)F)n12` [2-026], the “A: Echinochloa oryzicola Vasing. (herbicidal effect grade)” value in [1] is reported as 5 (Herbicidal ratio of 90% or more (almost completely withered)). The “C: Monochoria vaginalis” value in the data set on Monochoria vaginalis was 4 (Herbicidal ratio of 70% or more and less than 90%). Also, the “B: Scirpus juncoides” value in the data set on Scirpus juncoides is given as 5 (Herbicidal ratio of 90% or more (almost completely withered)). Moreover, the “a: transplanted Oryza sativa” value in [2] is 4 (Herbicidal ratio of 70% or more and less than 90%). In data set [3], the “A (Echinochloa oryzicola Vasing.) herbicidal ratio grade” value was 5 (Herbicidal ratio of 90% or more (almost completely withered)). Besides, the “I: herbicidal effect on Avena fatua” value with Avena fatua was 3 (Herbicidal ratio of 40% or more and less than 70%). Also, the “H: herbicidal effect” value in data set [4] was 5 (Herbicidal ratio of 90% or more (almost completely withered)). Further, in the data set on Galium spurium, the “Q: herbicidal effect on Galium spurium” value was 4 (Herbicidal ratio of 70% or more and less than 90%). In addition, the “K: herbicidal effect” value in the data set on Lolium multiflorum Lam. was 3 (Herbicidal ratio of 40% or more and less than 70%).
In the case of `COc1ccc(CSc2nnc3c(C(=O)Nc4nnc(C)o4)ccc(C(F)(F)F)n23)cc1` [1-114], the “A: Echinochloa oryzicola Vasing. (herbicidal effect grade)” value in data set [1] was 3 (Herbicidal ratio of 40% or more and less than 70%). The “C: Monochoria vaginalis” value in the data set with Monochoria vaginalis is listed as 0 (Herbicidal ratio of 5% or less (almost no effect)). Further, the “B: Scirpus juncoides” value in the data set with Scirpus juncoides was 2 (Herbicidal ratio of 20% or more and less than 40%). Further, in data set [2], the “a: transplanted Oryza sativa” value is 0 (Herbicidal ratio of 5% or less (almost no effect)). The “A (Echinochloa oryzicola Vasing.) herbicidal ratio grade” value in data set [3] is 0 (Herbicidal ratio of 5% or less (almost no effect)). Also, the “I (Avena fatua) herbicidal effect grade” value in the data set on Avena fatua was 0 (Herbicidal ratio of 5% or less (almost no effect)). In data set [4], the “H (Echinochloa crus-galli var. crus-galli) herbicidal effect grade” value was 3 (Herbicidal ratio of 40% or more and less than 70%). In addition, the “Q (Galium spurium) herbicidal effect grade” value with Galium spurium is 1 (Herbicidal ratio of 5% or more and less than 20%). The “K (Lolium multiflorum Lam.) herbicidal effect grade” value with Lolium multiflorum Lam. is recorded as 0 (Herbicidal ratio of 5% or less (almost no effect)).
As for `COCCNc1nnc2c(C(=O)Nc3nnc(C)o3)ccc(C(F)(F)F)n12` [1-109], in [1], the “A: Echinochloa oryzicola Vasing. (herbicidal effect grade)” value is 0 (Herbicidal ratio of 5% or less (almost no effect)). In addition, the “C: Monochoria vaginalis” value in the data set with Monochoria vaginalis is recorded as 0 (Herbicidal ratio of 5% or less (almost no effect)). Also, the “B: Scirpus juncoides” value in the data set on Scirpus juncoides was 2 (Herbicidal ratio of 20% or more and less than 40%). Besides, the “a: transplanted Oryza sativa” value in data set [2] is recorded as 0 (Herbicidal ratio of 5% or less (almost no effect)). Also, the “A (Echinochloa oryzicola Vasing.) herbicidal ratio grade” value in data set [3] is 0 (Herbicidal ratio of 5% or less (almost no effect)). Moreover, in the data set with Avena fatua, the “I (Avena fatua) herbicidal effect grade” value was 1 (Herbicidal ratio of 5% or more and less than 20%). Moreover, the “H (Echinochloa crus-galli var. crus-galli) herbicidal effect grade” value in [4] was 5 (Herbicidal ratio of 90% or more (almost completely withered)). Moreover, the “Q (Galium spurium) herbicidal effect grade” value in the data set on Galium spurium is 2 (Herbicidal ratio of 20% or more and less than 40%). Moreover, the “K (Lolium multiflorum Lam.) herbicidal effect grade” value in the data set with Lolium multiflorum Lam. is 0 (Herbicidal ratio of 5% or less (almost no effect)).
On to `CC(C)c1nnc2c(C(=O)N(C)c3nnnn3C)ccc(C(F)(F)F)n12` [2-023], for which, in data set [1], the “A: Echinochloa oryzicola Vasing. (herbicidal effect grade)” value was 2 (Herbicidal ratio of 20% or more and less than 40%). The “C: Monochoria vaginalis” value with Monochoria vaginalis is 0 (Herbicidal ratio of 5% or less (almost no effect)). Moreover, the “B: Scirpus juncoides” value with Scirpus juncoides is 1 (Herbicidal ratio of 5% or more and less than 20%). Moreover, in data set [2], the “a: transplanted Oryza sativa” value is 3 (Herbicidal ratio of 40% or more and less than 70%). The “A (Echinochloa oryzicola Vasing.) herbicidal ratio grade” value in data set [3] is reported as 0 (Herbicidal ratio of 5% or less (almost no effect)). In the data set with Avena fatua, the “I: herbicidal effect on Avena fatua” value was 0 (Herbicidal ratio of 5% or less (almost no effect)). The “H: herbicidal effect” value in data set [4] was 4 (Herbicidal ratio of 70% or more and less than 90%). For the same compound, the “K: herbicidal effect” value with Lolium multiflorum Lam. is 0 (Herbicidal ratio of 5% or less (almost no effect)).
Consider `CC(C)c1nnc2c(C(=O)Nc3nnc(C[S+](C)[O-])o3)ccc(C(F)(F)F)n12` (centres unmarked) [1-143], for which, in [1], the “A: Echinochloa oryzicola Vasing. (herbicidal effect grade)” value is given as 0 (Herbicidal ratio of 5% or less (almost no effect)). Further, the “C: Monochoria vaginalis” value with Monochoria vaginalis is 2 (Herbicidal ratio of 20% or more and less than 40%). For the same compound, the “B: Scirpus juncoides” value in the data set on Scirpus juncoides is 0 (Herbicidal ratio of 5% or less (almost no effect)). Also, the “a: transplanted Oryza sativa” value in [2] is 0 (Herbicidal ratio of 5% or less (almost no effect)). The “I (Avena fatua) herbicidal effect grade” value in the data set on Avena fatua is given as 0 (Herbicidal ratio of 5% or less (almost no effect)). In addition, the “H (Echinochloa crus-galli var. crus-galli) herbicidal effect grade” value in [4] was 4 (Herbicidal ratio of 70% or more and less than 90%). Moreover, the “Q (Galium spurium) herbicidal effect grade” value with Galium spurium is 2 (Herbicidal ratio of 20% or more and less than 40%). Besides, in the data set with Lolium multiflorum Lam., the “K (Lolium multiflorum Lam.) herbicidal effect grade” value is on record as 0 (Herbicidal ratio of 5% or less (almost no effect)).
On to `COc1ccc(CN(C)c2nnc3c(C(=O)Nc4nnc(C)o4)ccc(C(F)(F)F)n23)cc1` [1-167], for which the “A: Echinochloa oryzicola Vasing. (herbicidal effect grade)” value in [1] was 4 (Herbicidal ratio of 70% or more and less than 90%). Moreover, in the data set on Monochoria vaginalis, the “C: Monochoria vaginalis” value is reported as 0 (Herbicidal ratio of 5% or less (almost no effect)). For the same compound, in the data set on Scirpus juncoides, the “B: Scirpus juncoides” value was 2 (Herbicidal ratio of 20% or more and less than 40%). The “a: transplanted Oryza sativa” value in data set [2] is on record as 0 (Herbicidal ratio of 5% or less (almost no effect)). For the same compound, the “I: herbicidal effect on Avena fatua” value in the data set with Avena fatua was 1 (Herbicidal ratio of 5% or more and less than 20%). Also, the “H: herbicidal effect” value in data set [4] is 2 (Herbicidal ratio of 20% or more and less than 40%). Moreover, in the data set with Galium spurium, the “Q: herbicidal effect on Galium spurium” value was 2 (Herbicidal ratio of 20% or more and less than 40%). Moreover, in the data set on Lolium multiflorum Lam., the “K: herbicidal effect” value is 1 (Herbicidal ratio of 5% or more and less than 20%).
As to `CSCCNc1nnc2c(C(=O)Nc3nnc(C)o3)ccc(C(F)(F)F)n12` [1-130], the “A: Echinochloa oryzicola Vasing. (herbicidal effect grade)” value in [1] is 1 (Herbicidal ratio of 5% or more and less than 20%). Besides, the “C: Monochoria vaginalis” value in the data set with Monochoria vaginalis is 0 (Herbicidal ratio of 5% or less (almost no effect)). The “B: Scirpus juncoides” value in the data set with Scirpus juncoides was 0 (Herbicidal ratio of 5% or less (almost no effect)). Further, the “a: transplanted Oryza sativa” value in [2] was 1 (Herbicidal ratio of 5% or more and less than 20%). The “I (Avena fatua) herbicidal effect grade” value in the data set on Avena fatua is 1 (Herbicidal ratio of 5% or more and less than 20%). For the same compound, the “H (Echinochloa crus-galli var. crus-galli) herbicidal effect grade” value in [4] is 5 (Herbicidal ratio of 90% or more (almost completely withered)). Further, in the data set with Galium spurium, the “Q (Galium spurium) herbicidal effect grade” value is 4 (Herbicidal ratio of 70% or more and less than 90%). Besides, the “K (Lolium multiflorum Lam.) herbicidal effect grade” value with Lolium multiflorum Lam. is 1 (Herbicidal ratio of 5% or more and less than 20%).
